Data reported in patent US20190136321A1, “USE OF TRANSLATIONAL PROFILING TO IDENTIFY TARGET MOLECULES FOR THERAPEUTIC TREATMENT” (The Regents of The University of California, priority 2013, published 2019).

Key:
[1] = test system: YB1, MTA1, vimentin, and CD44; assay: Western blot and qPCR of mTOR-sensitive invasion genes in PC3 cells; assay type: cell-based, human; conditions: starting at 6 hr of treatment
Protocol: RNA was isolated using the manufacturer's protocol for RNA extraction with TRIzol Reagent (Invitrogen) using the Pure Link RNA mini kit (Invitrogen). RNA was DNase-treated with Pure Link Dnase (Invitrogen). DNase-treated RNA was transcribed to cDNA with SuperScript III First-Strand Synthesis System for RT-PCR (Invitrogen), and 1 μl of cDNA was used to run a SYBR green detection qPCR assay (SYBR Green Supermix and MyiQ2, Biorad). Primers were used at 200 nM.

GFP-labeled PC3 cells = assay: Real-time imaging of cell migration; assay type: cell-based, human; conditions: starting at 6 hr of treatment
Protocol: Real-time imaging of GFP-labeled PC3 cells was performed in poly-D-lysine-coated chamber cover glass slides (Lab-Tek). PC3 GFP cells were plated and allowed to adhere for 24 hr. Wells were wounded with a P200 pipette tip. The chamber slides were imaged with an IX81 Olympus wide-field fluorescence microscope equipped with a CO2- and temperature-controlled chamber and time-lapse tracking system. Images from DIC and GFP channels were taken every 2 min and processed using ImageJ and analyzed for cell migration with Manual Tracking, using local maximum centering correction to maintain a centroid xy coordinate for each cell per frame over time. Tracking data was subsequently processed with the Chemotaxis and Migration tool from ibidi to create xy coordinate plots, velocity, and distance measurements.

Pten^L/L mice = assay: Pharmacological treatment of Pten^L/L mice (preclinical trial, prostate cancer); assay type: in vivo, mouse
Protocol: Pten^loxp/loxp and Pb-cre mice where obtained from Jackson Laboratories and Mouse Models of Human Cancers Consortium (MMHCC), respectively, and maintained in the C57BL/6 background. Mice were maintained under specific pathogen-free conditions, and experiments were performed in compliance with institutional guidelines as approved by the Institutional Animal Care and Use Committee of UCSF.
Weight measurements were taken every 3 days to monitor for toxicity. For the 28-day study, mice were imaged via […] at day 0 and day 28 in a 14-T GE MR scanner (GE Healthcare).
Whole mouse prostates were removed from wild-type and Pten^L/L mice, microdissected, and frozen in liquid nitrogen. Frozen tissues were subsequently manually disassociated using a biopulverizer (Biospec) and additionally processed for protein and mRNA analysis as described above.
Prostates and lymph nodes were dissected from mice within 2 hr of the indicated treatment and fixed in 10% formalin overnight at 4° C. Tissues were subsequently dehydrated in ethanol (Sigma) at room temperature, mounted into paraffin blocks, and sectioned at […] Specimens were de-paraffinized and rehydrated using CitriSolv (Fisher) followed by serial ethanol washes. […] Sections were washed in distilled water followed by TBS washes. The sections were then incubated in 5% goat serum, 1% BSA in TBS for 1 hr at room temperature. Various primary antibodies were used, including those specific for keratin 5 (Covance), cytokeratin 8 (Abcam and Covance), YB1 (Abcam), vimentin (Abcam), MTA1 (Cell signaling), CD44 (BD Pharmingen), and the androgen receptor (Epitomics), which were diluted 1:50-1:500 in blocking solution and incubated on sections overnight at 4° C. Specimens were then washed in TBS and incubated with the appropriate Alexa 488 and 594 labeled secondary (Invitrogen) at 1:500 for 2 hr at room temperature, with the exception of YB1 which was incubated with biotinylated anti-rabbit secondary (Vector) followed by incubation with Alexa 594 labeled Streptavidin (Invitrogen). A final set of washes in TBS was completed at room temperature followed by mounting with DAPI Hardset Mounting Medium (Vector Lab). A Zeiss Spinning Disc confocal (Zeiss, CSU-X1) was used to image the sections at 40×-100×. Individual prostate cells were quantified for mean fluorescence intensity (m.f.i.) using the Axiovision (Zeiss, Release 4.8) densitometric tool.
Mouse lymph nodes were processed as described above and stained for CK8 and androgen receptor. Lymph nodes were imaged using a Zeiss AX10 microscope. Metastases were identified and areas were measured using the Axiovision (Zeiss, Release 4.8) measurement tool.
Immunohistochemistry was performed as described above (see “Immunofluorescence”) with the exception that immediately after antigen […] and TBS washes, specimens were incubated in 3% hydrogen peroxide in TBS followed by TBS washes. The following primary antibodies were used: phospho-AKT^S473 (Cell Signaling), phospho-rpS6^S240/244 (Cell Signaling), phospho-4EBP1^T37/46 (Cell Signaling), phospho-histone H3 (Upstate), and cleaved caspase (Cell Signaling). This was followed by TBS washes and incubation with the appropriate biotinylated secondary antibody (Vector Lab) for 30 min at room temperature. An ABC-HRP Kit (Vector Lab) was used to amplify the signal, followed by a brief incubation in hydrogen peroxide. The protein of interest was detected using DAB (Sigma). Specimens were counterstained with haematoxylin (Thermo Scientific), dehydrated with Citrisolv (Fisher), and mounted with Cytoseal XYL (Vector Lab).
Paraffin-embedded prostate specimens were deparaffinized and rehydrated as described above (see “Immunofluorescence”), stained with haematoxylin (Thermo Scientific), and washed with water. This was followed by a brief incubation in differentiation RTU (VWR) and two washes with water followed by two 70% ethanol washes. […]

Snail1, LEF1 and Twist1 = assay: Snail1 immunocytochemistry, LEF1/Twist1 Western blot and qPCR (YB1 target genes); assay type: cell-based, human; conditions: PC3 cells, 200 nM
Protocol: Western blot analysis was performed as previously described (Hsieh et al., Cancer Cell 17:249-261 (2010)) with antibodies specific to phospho-AKT^S473 (Cell Signaling), AKT (Cell Signaling), phospho-p70S6K^T389 (Cell Signaling), phospho-rpS6^S240/244 (Cell Signaling), rpS6 (Cell Signaling), phospho-4EBP1^T37/46 (Cell Signaling), 4EBP1 (Cell Signaling), 4EBP2 (Cell Signaling), YB1 (Cell Signaling), CD44 (Cell Signaling), LEF1 (Cell Signaling), PTEN (Cell Signaling), eEF2 (Cell Signaling), GAPDH (Cell Signaling), vimentin (BD Biosciences), eIF4E (BD Biosciences), Flag (Sigma), β-actin (Sigma), MTA1 (Santa Cruz Biotechnology), Twist (Santa Cruz Biotechnology), rpL28 (Santa Cruz Biotechnology), HA (Covance) and rictor (Bethyl Laboratory).
RNA was isolated using the manufacturer's protocol for RNA extraction with TRIzol Reagent (Invitrogen) using the Pure Link RNA mini kit (Invitrogen). RNA was DNase-treated with Pure Link Dnase (Invitrogen). DNase-treated RNA was transcribed to cDNA with SuperScript III First-Strand Synthesis System for RT-PCR (Invitrogen), and 1 μl of cDNA was used to run a SYBR green detection qPCR assay (SYBR Green Supermix and MyiQ2, Biorad). […]
Appropriately transfected or treated PC3 cells were plated on a poly-L-lysine-coated chamber slide (Lab-Tek) and cultured for 48 hr. […] Image capture and quantification were completed as described below (see “Immunofluorescence”).

[2] = Pten^L/L mice, ATP site inhibitor of mTOR 1 mg/kg daily, RAD001 10 mg/kg daily

## CC(C)n1nc(-c2ccc3oc(N)nc3c2)c2c(N)ncnc21 [ATP site inhibitor of mTOR]
[1]
  expression of YB1, MTA1, vimentin, and CD44 at the protein but not transcript level: selective decrease
GFP-labeled PC3 cells
  cancer cell migration: inhibited
Pten^L/L mice; Pten^L/L mice, 1 mg/kg daily, 28-day treatment, MRI
  prostate cancer volume: marked reduction
Pten^L/L mice; Pten^L/L mice, 1 mg/kg daily, 28 days
  decrease in prostatic intraepithelial neoplasia (PIN) lesions: 50%
Pten^L/L mice; Pten^L/L mice, 28 days, ATP site inhibitor of mTOR 1 mg/kg daily, RAD001 10 mg/kg daily
  4EBP1 and p70S6K1/2 phosphorylation: completely restored to wild-type levels
Pten^L/L mice; Pten^L/L mice, 60 days of treatment
  progression of invasive prostate cancer locally in the prostate gland: completely blocked
Pten^L/L mice; Pten^L/L mice, draining lymph nodes, 60 days of treatment
  total number and size of distant metastases: profoundly inhibited
Pten^L/L mice; [2]
  apoptosis (cleaved caspase 3): tenfold increase
  proliferation (phospho-histone H3): decreased
Pten^L/L mice; specific epithelial cell types within pre-invasive PIN lesions in Pten^L/L mice
  expression of YB1, vimentin, CD44, and MTA1 at the protein, but not transcript, level: marked decrease
Snail1, LEF1 and Twist1
  protein levels but not mRNA levels of YB1 target genes (Snail1, LEF1, Twist1): decreases
